# In patent publication US20110082114A1, “Methods of Treating Aneurysmal Dilatation, Blood Vessel Wall Weakness and Specifically Abdominal Aortic and Thoracic Aneurysm Using Matrix Metalloprotease-2 Inhibitors” (SYMPHONY EVOLUTION, INC., priority 2009, published 2011):
# Molecular target: T1, mADAM-10 or hADAM-10 (UniProt O14672)
# T1 sequence (O14672 1-748): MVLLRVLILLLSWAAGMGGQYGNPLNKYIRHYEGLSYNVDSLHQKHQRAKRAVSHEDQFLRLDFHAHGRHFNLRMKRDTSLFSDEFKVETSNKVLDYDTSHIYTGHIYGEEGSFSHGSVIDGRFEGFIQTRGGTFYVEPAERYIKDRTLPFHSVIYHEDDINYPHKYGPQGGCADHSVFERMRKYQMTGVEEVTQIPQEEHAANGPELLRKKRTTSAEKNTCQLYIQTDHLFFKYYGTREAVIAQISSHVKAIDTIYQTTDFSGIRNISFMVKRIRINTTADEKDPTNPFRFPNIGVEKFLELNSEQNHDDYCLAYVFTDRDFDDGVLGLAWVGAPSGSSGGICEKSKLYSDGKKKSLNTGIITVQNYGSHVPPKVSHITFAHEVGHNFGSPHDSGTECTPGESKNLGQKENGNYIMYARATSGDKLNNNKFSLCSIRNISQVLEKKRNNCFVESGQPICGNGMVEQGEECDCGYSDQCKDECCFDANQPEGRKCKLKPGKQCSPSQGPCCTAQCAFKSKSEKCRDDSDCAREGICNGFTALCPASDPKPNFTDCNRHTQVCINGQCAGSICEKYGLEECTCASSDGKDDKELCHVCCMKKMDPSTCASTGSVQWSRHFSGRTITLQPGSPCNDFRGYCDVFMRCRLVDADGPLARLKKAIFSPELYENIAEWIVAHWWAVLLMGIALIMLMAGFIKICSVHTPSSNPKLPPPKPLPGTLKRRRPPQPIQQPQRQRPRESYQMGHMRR
# Assay: ADAM-10 enzyme assay (fluorogenic peptide cleavage);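 note: fluorescence from cleavage of a quenched 10-residue DABCYL/EDANS peptide by 5 nM enzyme in HEPES pH 8.0 buffer, 16 hr at room temperature, compounds serially diluted 100 µM to 0.5 nM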
# Format: biochemical
# Method: mADAM-10 or hADAM-10 activity was measured as the ability to cleave a 10-residue peptide (DABCYL-Leu-Leu-Ala-Gln-Lys-*-Leu-Arg-Ser-Ser-Arg-EDANS). […] Enzyme was diluted to a final active concentration of 5 nM in Buffer A (50 mM HEPES 8.0, 100 mM NaCl, 1 mM CaCl2 and 0.01% NP-40). Serial dilutions for compounds were performed ranging from 100 μM to 0.5 nM using a Beckman Biomek 2000 in polypropylene plates (Greiner). […] This reaction was incubated for 16 hr at RT and fluorescence was read using identical conditions.
row,IC50 [nM],Compound
1,< 50,COCCOC(=O)N1CCN(S(=O)(=O)c2ccc(Oc3ccc(F)cc3)cc2)[C@@H](C(=O)NO)C1 [Entry 1]
2,< 50,O=C(NO)[C@H]1CN(C(=O)N2CCOCC2)CCN1S(=O)(=O)c1ccc(Oc2ccc(F)cc2)cc1 [Entry 2]
3,< 50,COCCOC(=O)N1CCN(S(=O)(=O)c2ccc(Oc3ccc(F)cc3)c(F)c2)[C@@H](C(=O)NO)C1 [Entry 3]
4,< 50,COCCOC(=O)N1CCN(S(=O)(=O)c2ccc(Oc3ccc(C#N)cc3)c(F)c2)[C@@H](C(=O)NO)C1 [Entry 5]
5,< 50,CC(C)(C)OC(=O)N1CCN(S(=O)(=O)c2cc(F)c(Oc3ccc(F)cc3)c(F)c2)[C@@H](C(=O)NO)C1 [Entry 9]
6,< 50,O=C(NO)[C@H]1CN(C(=O)N2CCOCC2)CCN1S(=O)(=O)c1cc(F)c(Oc2ccc(F)cc2)c(F)c1 [Entry 12]
7,< 50,CNC(=O)CN1CCN(S(=O)(=O)c2cc(F)c(Oc3ccc(Cl)cc3)c(F)c2)[C@@H](C(=O)NO)C1 [Entry 19]
8,< 50,CN(C)C(=O)CN1CCN(S(=O)(=O)c2cc(F)c(Oc3ccc(Cl)cc3)c(F)c2)[C@@H](C(=O)NO)C1 [Entry 20]
9,< 50,O=C(NO)[C@H]1CN(CC(=O)N2CCCC2)CCN1S(=O)(=O)c1cc(F)c(Oc2ccc(Cl)cc2)c(F)c1 [Entry 21]
10,< 50,CN1CCC(OC(=O)N2CCN(S(=O)(=O)c3cc(F)c(Oc4ccc(Cl)cc4)c(F)c3)[C@@H](C(=O)NO)C2)CC1 [Entry 22]
11,< 50,CCOC(=O)N1CCN(CC(=O)N2CCN(S(=O)(=O)c3cc(F)c(Oc4ccc(Cl)cc4)c(F)c3)[C@@H](C(=O)NO)C2)CC1 [Entry 23]

# Second part, the compound before the results:
row,Compound,IC50 [nM]
1,COCCOC(=O)N1CCN(S(=O)(=O)c2ccc(Oc3ccc(Cl)cc3)c(F)c2)[C@@H](C(=O)NO)C1 [Entry 4],< 50
2,O=C(NO)[C@H]1CN(C(=O)N2CCOCC2)CCN1S(=O)(=O)c1ccc(Oc2ccc(Cl)cc2)c(F)c1 [Entry 6],< 50
3,N#Cc1ccc(Oc2ccc(S(=O)(=O)N3CCN(C(=O)N4CCOCC4)C[C@@H]3C(=O)NO)cc2F)cc1 [Entry 7],< 50
4,O=C(NO)[C@H]1CN(C(=O)N2CCOCC2)CCN1S(=O)(=O)c1ccc(Oc2ccc(F)cc2)c(F)c1 [Entry 8],< 50
5,COCCOC(=O)N1CCN(S(=O)(=O)c2cc(F)c(Oc3ccc(F)cc3)c(F)c2)[C@@H](C(=O)NO)C1 [Entry 10],< 50
6,O=C(NO)[C@H]1CNCCN1S(=O)(=O)c1cc(F)c(Oc2ccc(F)cc2)c(F)c1 [Entry 11],50 to 1000
7,CCOC(=O)N1CCN(S(=O)(=O)c2cc(F)c(Oc3ccc(F)cc3)c(F)c2)[C@@H](C(=O)NO)C1 [Entry 13],< 50
8,CN1CCN(S(=O)(=O)c2cc(F)c(Oc3ccc(F)cc3)c(F)c2)[C@@H](C(=O)NO)C1 [Entry 14],50 to 1000
9,CN1CCN(C(=O)N2CCN(S(=O)(=O)c3cc(F)c(Oc4ccc(Cl)cc4)c(F)c3)[C@@H](C(=O)NO)C2)CC1 [Entry 16],< 50
10,O=C(NO)[C@H]1CN(C(=O)NCCN2CCCC2)CCN1S(=O)(=O)c1cc(F)c(Oc2ccc(Cl)cc2)c(F)c1 [Entry 17],< 50
11,O=C(NO)[C@H]1CN(C(=O)OCCN2CCCC2)CCN1S(=O)(=O)c1cc(F)c(Oc2ccc(Cl)cc2)c(F)c1 [Entry 18],< 50
12,CN1CCN(CC(=O)N2CCN(S(=O)(=O)c3cc(F)c(Oc4ccc(Cl)cc4)c(F)c3)[C@@H](C(=O)NO)C2)CC1 [Entry 24],< 50
13,O=C(NO)[C@H]1CN(C(=O)CN2CCOCC2)CCN1S(=O)(=O)c1cc(F)c(Oc2ccc(Cl)cc2)c(F)c1 [Entry 25],< 50
14,O=C(NO)[C@H]1CN(C(=O)CN2CCCCC2)CCN1S(=O)(=O)c1cc(F)c(Oc2ccc(Cl)cc2)c(F)c1 [Entry 26],< 50
15,O=C(NO)[C@H]1CN(C(=O)OCCN2CCCCC2)CCN1S(=O)(=O)c1cc(F)c(Oc2ccc(Cl)cc2)c(F)c1 [Entry 27],< 50
16,CS(=O)(=O)N1CCN(S(=O)(=O)c2cc(F)c(Oc3ccc(Cl)cc3)c(F)c2)[C@@H](C(=O)NO)C1 [Entry 28],< 50
